Measurements from patent US6610502B1, “Compound 2-amino-3-[2-(α-mannopyranosyl)indol-3-yl]propionic acid, process for preparing the same, and method for inspecting function of living body with the novel compound” (Kyowa Medex Co., Ltd., priority 1997, dated 2003).
Values joined by “and” are separate entries in the source; they are usually repeats but may differ in a detail not shown here. Equal entries are not always repeated.

Key:
Assay type in all cases: in vivo, human
[1] = Quantitation of the compound in serum by high performance liquid chromatography (Examples 3, 4); conditions: for level in serum: healthy persons, newborns to 90-year-old
Method: Standard solution of 2-amino-3-[2-(α-mannopyranosyl)indole-3-yl]propionic acid obtained in Example 1 above was prepared. Next, 350 μl of the standard solution was added to 500 μl of 0.1N hydrochloric acid containing 1% vitamin C, mixed with 50 μl of 40 μM N-methyl serotonin as an internal standard then 100 μl of 60% perchloric acid, and centrifuged at 3000 rpm at 4° C. The supernatant was filtered through a 0.22 μm filter to obtain a filtrate.
The filtrate was subjected to high performance liquid chromatography under the following conditions:
Column: Finepak SILC18-T5 (4 mm×25 cm, JASCO Corporation)
Development solvent: Mixed solvent of acetonitrile and buffer (70 mM citric acid: 60 mM disodium phosphate=1;1, v/v, pH3.5)
Detection: Fluorescence, excited at 302 nm, determined at 350 nm
Sera from healthy persons and patients with renal disease were quantitated for the compound of the present invention. First, bloods were collected from the subjects and left to stand at room temperature for 30 minutes for coagulation. Next, the sera were collected by centrifugation at 3000 rpm for 10 minutes and stored at −80° C. until use. Sera from healthy persons (males and females, newborns to 90-year-old persons) were quantitated for the compound of the present invention in the same manner as that of Example 2 except that sera were used instead of the standard solution. […] No difference was detected between ages or between sexes.
Next, sera from patients with renal disease (17 males, average age of 53.9; 13 females, average age of 46.4) were quantitated for the compound of the present invention. […] As shown in this figure, the average value of 856 ng/ml (SD 247) was obtained for samples from male patients while 854 ng/ml (SD 305) for samples from female patients.
Sera and cerebrospinal fluids from healthy persons and patients with central nervous disease were quantitated for the compound of the present invention. Both sera and cerebrospinal fluids were collected from 22 healthy persons, one patient with spinocerebellar ataxia and one patient with metastatic brain tumor, and quantitated for the compound of the present invention in the sera and the cerebrospinal fluids in the same manner as that of Example 2 except that sera or cerebrospinal fluids were used instead of the standard solution. […] The result of quantitation of the compound in cerebrospinal fluids is shown in FIG. 3 in which ●, □ and Δ show the healthy persons, the patient with spinocerebellar ataxia, and the patient with metastatic brain tumor, respectively. As shown in this figure, the level of the compound in cerebrospinal fluids from healthy persons was determined to be 130.4 ng/ml (SD 29.1). The level of the compound in cerebrospinal fluid from the patient with spinocerebellar ataxia was determined to be 399.4 ng/ml. The level of the compound in cerebrospinal fluid from the patient with metastatic brain tumor was determined to be 822.6 ng/ml.

[2] = GFR assay: the present compound in urine and sera by enzyme immunoassay, clearance (Example 8)
Method: (§1) Enzyme immunoassay was performed using the antibody prepared in Example 6. First, 50 μl of 2-amino-3-[2-(α-D-mannopyranosyl)indole-3-yl]propionic acid-BSA conjugate solution (20 μg/ml 0.1M carbonate buffer, pH9.5) was dispensed into a 96-well microtiter plate (NUNC. Corp.) and left to stand at 4° C. overnight. After washing the plate three times with PBS, 250 μl of 1% BSA/PBS solution was dispensed into the plate and left to stand at room temperature for 1 hour. Then, the plate was washed three times with PBS to be used as a reaction plate. Next, 50 μl of a test sample diluted with 0.1M phosphate buffer (pH 7.4) supplemented with varied concentrations of 2-amino-3-[2-(α-D-mannopyranosyl)indole-3-yl]propionic acid/0.1%BSA or 0.1M phosphate buffer supplemented with 0.1% BSA (pH7.4) was dispensed into the reaction plate into which 50 μl of the monoclonal antibody prepared in Example 6 (10 ng/ml, 0.1M phosphate buffer solution supplemented with 0.1% BSA, pH7.4) was added while stirring. The mixture was allowed to react at room temperature for 3 hours. Then, after the reaction was completed, the plate was washed five times with PBS containing 0.05% Tween 20, and then 50 μl of POD labeled-anti-mouse immunoglobulins-rabbit IgG (DAKO) was added to the plate for reaction at room temperature for 1 hour. After the reaction, the plate was washed five times with PBS containing 0.05% Tween 20, added with 50 μl of MCDP/50 mM citrate buffer solution (pH5.0), and the mixture was allowed to react at room temperature for 30 minutes. Finally, 50 μl of a reaction stopper (ethyl diethyldithiocarbamate) was added to the plate, and absorbance was then determined at 660 nm by a microplate reader. The calibration curve is shown in FIG. 5 in which the concentration of 2-amino-3-[2-(α-D-mannopyranosyl)indole-3-yl]propionic acid was indicated as a concentration of single compound.
Eighteen patients with non-renal disease were assayed for the levels of 2-amino-3-[2-(α-mannopyranosyl)indole-3-yl]propionic acid in their urine and sera as described in Example 7. Urine samples stored for 24 hours were used. Volumes of those samples were determined and then partially stored at −80° C. until assay. Upon use, the frozen urine samples were thawed at 37° C. and kept warm. Subsequently, after sufficient stirring and mixing, the samples were centrifuged at 3000 rpm for 10 minutes to remove impurities. The resultant supernatants were used as samples. Serum samples were collected from the patients' blood, left to stand at room temperature for 30 minutes for coagulation, and centrifuged to collect sera which were stored at −80° C. until use.
Clearance View=(level in urine×urine volume)/(24×60×serum level)

[3] = Assay of excreted amount in urine: the present compound by enzyme immunoassay (Example 9); conditions: healthy persons
Method: as §1
Healthy persons (male and female, from newborn to 90 year-old) were assayed for levels of 2-amino-3-[2-(α-mannopyranosyl)indole-3-yl]propionic acid in their urine as described in Example 7, to evaluate the usefulness of the method of the present invention for measurement of renal functions. Urine samples stored for 24 hours were pooled, their volumes were determined, and then partially stored at −80° C. until use. Upon use, the frozen urine samples were thawed and kept warm at 37° C. Subsequently, after sufficient stirring and mixing, the samples were centrifuged at 3000 rpm for 10 minutes to remove impurities. The resultant supernatants were used as samples. As a comparative example, creatinine levels in the same test samples were assayed.

- level in serum, average value ([1]; female patients with renal disease (13 females), SD 305): 854 ng/mL
- range of levels in sera from 99% of subjects ([1]; healthy persons (n=50)): 52 to 99 ng/mL
- level in serum ([1]; females, SD 12.6): 74.5 ng/mL
- level in serum ([1]; males, SD 10.3): 76.3 ng/mL
- level in serum, average value ([1]; male patients with renal disease (17 males), SD 247): 856 ng/mL
- range of levels in sera from 99% of subjects ([1]; patients with renal dysfunction (n=30)): 307 to 1403 ng/mL
- level in sera ([1]; sera of Example 4 subjects, SD 13.8): 69.9 ng/mL
- clearance (ml/min) the present compound ([2]; Average of 18 subjects): 68.40 mL/min
- the present compound in serum ([2]; Average of 18 subjects): 0.24 nmol/mL
- the present compound in urine ([2]; Average of 18 subjects): 14.87 nmol/mL
- excreted amount in urine, average ([3]; female, age 0-10): 4111 µg/day
- excreted amount in urine, average ([3]; female, age 0-90): 4507 µg/day
- excreted amount in urine, average ([3]; female, age 10-30): 4520 µg/day
- excreted amount in urine, average ([3]; female, age 30-50): 4824 µg/day
- excreted amount in urine, average ([3]; female, age 50-70): 4412 µg/day
- excreted amount in urine, average ([3]; female, age 70-90): 4666 µg/day
- average excretion amount per day ([3]; male and female, all ages): 4.5 mg/day
- excreted amount in urine, average ([3]; male, age 0-10): 4095 µg/day
- excreted amount in urine, average ([3]; male, age 0-90): 4488 µg/day
- excreted amount in urine, average ([3]; male, age 10-30): 4581 µg/day
- excreted amount in urine, average ([3]; male, age 30-50): 4498 µg/day
- excreted amount in urine, average ([3]; male, age 50-70): 4647 µg/day
- excreted amount in urine, average ([3]; male, age 70-90): 4622 µg/day
Structure (SMILES): NC(Cc1c([C@H]2O[C@H](CO)[C@@H](O)[C@H](O)[C@@H]2O)[nH]c2ccccc12)C(=O)O (stereo partly drawn) [the present compound, 2-amino-3-[2-(α-mannopyranosyl)indole-3-yl]propionic acid]
- the present compound in serum ([2]; individual subjects 1-18, patients with non-renal disease): 0.240 nmol/ml (2×) and 0.193 nmol/ml (3×) and 0.166 nmol/ml and 0.280 nmol/ml and 0.200 nmol/ml and 0.319 nmol/ml (3×) and 0.279 nmol/ml (2×) and 0.186 nmol/ml and 0.309 nmol/ml and 0.213 nmol/ml and 0.226 nmol/ml and 0.159 nmol/ml
- the present compound in urine ([2]; individual subjects 1-18, urine stored for 24 hours): 11.677 nmol/mL and 7.195 nmol/mL and 4.242 nmol/mL and 14.862 nmol/mL and 19.188 nmol/mL and 7.595 nmol/mL and 10.649 nmol/mL and 14.349 nmol/mL and 13.645 nmol/mL and 27.103 nmol/mL and 16.348 nmol/mL and 12.726 nmol/mL and 11.931 nmol/mL and 26.935 nmol/mL and 15.040 nmol/mL and 12.989 nmol/mL and 33.653 nmol/mL and 7.573 nmol/mL
- clearance (ml/min) the present compound ([2]; individual subjects 1-18, (level in urine×urine volume)/(24×60×serum level)): 64.2 mL/min and 54.2 mL/min and 58.1 mL/min and 80.8 mL/min and 64.3 mL/min and 53.0 mL/min and 72.3 mL/min and 60.7 mL/min and 91.7 mL/min and 56.1 mL/min and 89.1 mL/min and 61.9 mL/min and 89.2 mL/min and 77.6 mL/min and 67.7 mL/min and 65.3 mL/min and 52.8 mL/min
